Laboratory results as given in the NIST ThermoML archive (doi:10.1021/acs.jced.5b01003).
“And” between values parts separate entries of the source, which are not always exact repeats. Identical values can stand only once.

Settings: Liquid, Transpiration method

CN(C)CCN [2-dimethylamino-1-ethylamine]
Settings	vapor or sublimation pressure
273.8 K	0.7397 kPa
274.2 K	0.7526 kPa
275.2 K	0.808 kPa
276.7 K	0.8869 kPa
278.2 K	0.9687 kPa
280.7 K	1.114 kPa
283.2 K	1.309 kPa
285.6 K	1.561 kPa
288.2 K	1.821 kPa
290.7 K	2.088 kPa
293.2 K	2.392 kPa
295.6 K	2.763 kPa
298.2 K	3.186 kPa and 3.282 kPa
300.7 K	3.755 kPa and 3.727 kPa
303.2 K	4.331 kPa and 4.291 kPa

CNCCNC [N1,N2-dimethylethane-1,2-diamine]
Settings	vapor or sublimation pressure [kPa]
279.2 K	0.4258
281.4 K	0.5045
283.3 K	0.5851
285.6 K	0.6936
288.2 K	0.8579
290.6 K	1.023
293.2 K	1.228
295.8 K	1.498
298.2 K	1.781
300.7 K	2.106
303.4 K	2.477
305.6 K	2.892
308.2 K	3.408
310.7 K	3.974

CNCCN(C)C [N,N,N'-trimethylethylenediamine]
Settings	vapor or sublimation pressure [kPa]
274.2 K	0.5021
276.7 K	0.605
281.8 K	0.8858
286.8 K	1.271
291 K	1.686
296.3 K	2.403
298.2 K	2.733
301 K	3.259
303.2 K	3.811
304.1 K	4.074
305.4 K	4.402

CNCCN [N-methylethylenediamine]
Settings	vapor or sublimation pressure [kPa]
272.2 K	0.2731
274.3 K	0.3181
275.4 K	0.3449
278 K	0.4148
278.6 K	0.4455
279.4 K	0.4695
280.2 K	0.4943
281.3 K	0.5355
282.3 K	0.5867
283.1 K	0.6075
284.1 K	0.6579
284.9 K	0.6972
286.3 K	0.7738
287.8 K	0.8601
289.3 K	0.9404
290.6 K	1.034
292.2 K	1.176
294.6 K	1.394
296.2 K	1.541
298.1 K	1.762
300.2 K	2.017
302.2 K	2.275
